From patent publication US8404729B2, “Heterocyclic tetracyclic tetrahydrofuran derivatives” (Janssen Pharmaceutica, NV, priority 2005, dated 2013) come the findings set out here.

Experiment [1] has as its target T1, human Dopamine D2L receptor (Homo sapiens, UniProt P14416).
T1 construct: expressed in transfected cells; host or cells: CHO cells
Briefly: In vitro binding affinity for human D2L receptor ([3H]Spiperone). The settings on record: membranes of human D2L receptor-transfected CHO cells, read-out: D2 (pIC50) (converted). As to the method:
Frozen membranes of human Dopamine D2L receptor-transfected CHO cells were thawed, briefly homogenised using an Ultra-Turrax T25 homogeniser and diluted in Tris-HCl assay buffer containing NaCl, CaCl2, MgCl2, KCl (50, 120, 2, 1, and 5 mM respectively, adjusted to pH 7.7 with HCl) to an appropriate protein concentration optimised for specific and non-specific binding. Radioligand [^3H]Spiperone (NEN, specific activity ˜70 Ci/mmol) was diluted in assay buffer at a concentration of 2 nmol/L. Prepared radioligand (50 μl), along with 50 μl of either the 10% DMSO control, Butaclamol (10^−6 mol/l final concentration), or compound of interest, was then incubated (30 min, 37° C.) with 400 μl of the prepared membrane solution. Membrane-bound activity was filtered through a Packard Filtermate harvester onto GF/B Unifilterplates and washed with ice-cold Tris-HCl buffer (50 mM; pH 7.7; 6×0.5 ml). Filters were allowed to dry before adding scintillation fluid and counting in a Topcount scintillation counter. Percentage specific bound and competition binding curves were calculated using S-Plus software (Insightful).

A further experiment concerns the target T2, 5-HT2A receptors (Rattus norvegicus, UniProt P14842).
T2 construct: the tissue used is the frontal cortex of the rat; from tissue; host or cells: rat frontal cortex
Briefly: In vitro binding affinity for 5-HT2A receptor (3H-ketanserin radioligand binding). The following applies: frontal cortex of the rat, read-out: 5-HT2A (pIC50) (converted). As to the method:
The interaction of the compounds of Formula (I) with 5-HT2A and 5-HT2C receptors was assessed in in vitro radioligand binding experiments. […] During the incubation, the radioligands bind to the receptor. When equilibrium of binding is reached, the receptor bound radioactivity is separated from the non-bound radioactivity, and the receptor bound activity is counted. The interaction of the test compounds with the receptors is assessed in competition binding experiments. Various concentrations of the test compound are added to the incubation mixture containing the tissue preparation and the radioligand. Binding of the radioligand will be inhibited by the test compound in proportion to its binding affinity and its concentration. The radioligand used for 5-HT2A binding affinity is ^3H-ketanserin and the tissue used is the frontal cortex of the rat. The radioligand used for 5-HT2c binding affinity is ^3H-mesulergine and the tissue used is the choroid plexus of the pig.

The target in the next experiment is T3, NET (Rattus norvegicus, UniProt Q63380).
T3 construct: Cortex from rat brain was collected and homogenised; from tissue; host or cells: rat brain cortex
T3 sequence (Q63380 1-617): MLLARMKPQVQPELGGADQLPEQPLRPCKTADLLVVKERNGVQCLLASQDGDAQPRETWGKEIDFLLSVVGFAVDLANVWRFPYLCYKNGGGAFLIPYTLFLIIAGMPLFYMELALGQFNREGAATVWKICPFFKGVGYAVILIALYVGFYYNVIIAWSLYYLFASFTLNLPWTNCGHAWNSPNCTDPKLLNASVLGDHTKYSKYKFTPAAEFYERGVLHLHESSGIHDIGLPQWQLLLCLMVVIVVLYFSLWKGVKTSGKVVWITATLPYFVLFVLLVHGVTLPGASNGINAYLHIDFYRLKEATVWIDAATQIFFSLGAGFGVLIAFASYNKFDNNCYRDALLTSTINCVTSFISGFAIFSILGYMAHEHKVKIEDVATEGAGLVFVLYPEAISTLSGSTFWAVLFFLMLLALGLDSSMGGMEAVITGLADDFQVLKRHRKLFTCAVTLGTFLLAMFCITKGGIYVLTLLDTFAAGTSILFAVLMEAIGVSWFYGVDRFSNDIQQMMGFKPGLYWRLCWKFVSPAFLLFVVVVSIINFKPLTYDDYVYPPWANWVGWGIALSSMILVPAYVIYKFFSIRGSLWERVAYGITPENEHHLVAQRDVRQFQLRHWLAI
Briefly: In vitro determination of NET reuptake inhibition ([3H]Nixosetine binding). The settings on record: rat brain cortex membranes, read-out: NET-inhibition (pIC50) (converted). As to the method:
Cortex from rat brain was collected and homogenised using an Ultra-Turrax T25 and a Dual homogeniser in ice-cold homogenising buffer containing Tris, NaCl and KCl (50 mM, 120 mM and 5 mM, respectively, pH 7.4) prior to dilution to an appropriate protein concentration optimised for specific and non-specific binding. […] Membrane-bound activity was detected by filtration through a Packard Filtermate harvester onto GF/B Unifilterplates, washed with ice-cold Tris-HCl buffer, containing NaCl and KCl (50 mM, 120 mM and 4 mM; pH 7.4; 6×0.5 ml). Filters were allowed to dry for 24 h before adding scintillation fluid. Scintillation fluid was allowed to saturate filters for 24 h before counting in a Topcount scintillation counter. Percentage specific bound and competition binding curves were calculated using S-Plus software (Insightful).

Another experiment has as its target T4, 5-HT2C receptors (Sus scrofa, UniProt K7GSR7).
T4 construct: the tissue used is the choroid plexus of the pig; from tissue; host or cells: pig choroid plexus
T4 sequence (K7GSR7 1-457): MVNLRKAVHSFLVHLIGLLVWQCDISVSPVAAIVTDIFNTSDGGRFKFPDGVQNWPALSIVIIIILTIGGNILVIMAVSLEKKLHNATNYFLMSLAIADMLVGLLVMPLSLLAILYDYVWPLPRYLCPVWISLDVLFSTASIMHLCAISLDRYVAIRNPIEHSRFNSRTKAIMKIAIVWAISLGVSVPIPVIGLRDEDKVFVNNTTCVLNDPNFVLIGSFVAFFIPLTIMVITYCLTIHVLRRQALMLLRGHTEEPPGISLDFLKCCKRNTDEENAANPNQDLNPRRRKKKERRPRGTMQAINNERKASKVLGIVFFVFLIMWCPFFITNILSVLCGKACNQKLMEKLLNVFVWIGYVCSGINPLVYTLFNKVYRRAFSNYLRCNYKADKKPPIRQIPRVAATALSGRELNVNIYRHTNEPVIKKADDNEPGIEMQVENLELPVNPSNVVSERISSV
Description: In vitro binding affinity for 5-HT2C receptor (3H-mesulergine radioligand binding). The settings on record: choroid plexus of the pig, read-out: 5-HT2C (pIC50) (converted). The protocol:
The interaction of the compounds of Formula (I) with 5-HT2A and 5-HT2C receptors was assessed in in vitro radioligand binding experiments. In general, a low concentration of a radioligand with a high binding affinity for the receptor is incubated with a sample of a tissue preparation enriched in a particular receptor (1 to 5 mg tissue) in a buffered medium (0.2 to 5 ml). During the incubation, the radioligands bind to the receptor. When equilibrium of binding is reached, the receptor bound radioactivity is separated from the non-bound radioactivity, and the receptor bound activity is counted. The interaction of the test compounds with the receptors is assessed in competition binding experiments. Various concentrations of the test compound are added to the incubation mixture containing the tissue preparation and the radioligand. Binding of the radioligand will be inhibited by the test compound in proportion to its binding affinity and its concentration. The radioligand used for 5-HT2A binding affinity is ^3H-ketanserin and the tissue used is the frontal cortex of the rat. The radioligand used for 5-HT2c binding affinity is ^3H-mesulergine and the tissue used is the choroid plexus of the pig.

SMILES strings stand for the structures.

T2 sequence (P14842 whole entry): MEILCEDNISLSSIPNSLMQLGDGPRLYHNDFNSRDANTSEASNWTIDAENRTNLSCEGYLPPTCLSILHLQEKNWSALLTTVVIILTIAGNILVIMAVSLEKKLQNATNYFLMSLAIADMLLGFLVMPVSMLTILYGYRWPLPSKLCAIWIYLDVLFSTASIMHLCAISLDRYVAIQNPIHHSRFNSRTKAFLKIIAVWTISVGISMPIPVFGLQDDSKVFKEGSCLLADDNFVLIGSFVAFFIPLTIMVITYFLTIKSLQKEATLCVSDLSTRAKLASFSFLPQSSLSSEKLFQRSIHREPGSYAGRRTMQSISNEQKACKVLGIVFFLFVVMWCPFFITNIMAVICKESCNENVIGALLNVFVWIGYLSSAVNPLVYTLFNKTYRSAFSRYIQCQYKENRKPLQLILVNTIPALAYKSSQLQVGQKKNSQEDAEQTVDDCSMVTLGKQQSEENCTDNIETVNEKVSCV
T1 sequence (P14416 whole entry): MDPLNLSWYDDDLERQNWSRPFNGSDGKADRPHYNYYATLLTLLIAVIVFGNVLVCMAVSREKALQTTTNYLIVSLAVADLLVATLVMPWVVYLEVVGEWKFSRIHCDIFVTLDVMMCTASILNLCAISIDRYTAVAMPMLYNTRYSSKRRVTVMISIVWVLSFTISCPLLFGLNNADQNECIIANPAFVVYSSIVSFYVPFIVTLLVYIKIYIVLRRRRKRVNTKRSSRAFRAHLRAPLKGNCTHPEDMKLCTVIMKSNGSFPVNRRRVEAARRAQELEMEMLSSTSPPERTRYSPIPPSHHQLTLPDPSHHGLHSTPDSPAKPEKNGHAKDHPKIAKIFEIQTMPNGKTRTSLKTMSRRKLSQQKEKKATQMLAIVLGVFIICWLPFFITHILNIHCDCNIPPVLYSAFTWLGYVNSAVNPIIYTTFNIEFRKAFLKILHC

Turning to `OCCN1CCN(C[C@H]2C[C@@H]3c4ccccc4Sc4sccc4[C@H]3O2)CC1` (relative stereo) [Compound 15], the IC50 in experiment [1] is 251 nM; at 5-HT2A receptors, 200 nM; at NET, 2510 nM; at 5-HT2C receptors, 251 nM.
`CNC[C@H]1C[C@@H]2c3ccccc3Sc3sccc3[C@H]2O1` (racemic) [Compound 20]: the IC50 in experiment [1] is 1260 nM; at 5-HT2A receptors, 79.4 nM; on NET it was 63.1 nM; at 5-HT2C receptors, 50.1 nM.
On the same counts, the results for `OC1CCN(C[C@H]2C[C@@H]3c4ccccc4Sc4sccc4[C@H]3O2)C1` (relative stereo) [Compound 16] are 158 nM, 20 nM, 3160 nM and 15.8 nM.
The corresponding values for `CN(CCO)CC1CC2c3ccccc3Sc3sccc3C2O1` (racemic) [Compound 25] are 200 nM, 10 nM, 126 nM and 10 nM.
On the same counts, the results for `CN(C)CC1CC2c3ccccc3Sc3sccc3C2O1` (centres unmarked) [Compound 9] are 398 nM, 15.8 nM, 316 nM and 25.1 nM.
`c1ccc2c(c1)Sc1sccc1[C@H]1O[C@@H](CN3CCC4(CC3)OCCO4)C[C@H]21` (relative stereo) [Compound 17]: the IC50 was 158 nM in experiment [1], 39.8 nM at 5-HT2A receptors, above 10000 nM at NET and 100 nM at 5-HT2C receptors.
As for `CN(CCO)C[C@H]1C[C@H]2c3ccccc3Sc3sccc3[C@@H]2O1` (relative stereo) [Compound 10], the IC50 was 200 nM in experiment [1], 12.6 nM on 5-HT2A receptors, 200 nM at NET and 20 nM on 5-HT2C receptors.
`CCOC(=O)c1cc2c(s1)Sc1ccccc1C1CC(CN(C)C)OC21` (centres unmarked) [Compound 34]: the IC50 in experiment [1] is 3980 nM; on 5-HT2A receptors, 158 nM; at NET it was 2510 nM; at 5-HT2C receptors, 316 nM.
With `CN(C)CC1CC2c3ccccc3Cc3ccsc3C2O1` (centres unmarked) [Compound 35], the IC50 was 794 nM in experiment [1], 6.31 nM on 5-HT2A receptors, 501 nM at NET and 15.8 nM at 5-HT2C receptors.
The corresponding values for `CNC[C@H]1C[C@H]2c3ccccc3Sc3sccc3[C@@H]2O1` (relative stereo) [Compound 21] are 501 nM, below 10 nM, 126 nM and 3.98 nM.
`CN(C)C[C@@H]1C[C@@H]2c3ccccc3Sc3sccc3[C@H]2O1` [Compound 2]: the IC50 is 200 nM in experiment [1], below 10 nM at 5-HT2A receptors, 63.1 nM on NET and 7.94 nM on 5-HT2C receptors.
